Assay results from US6989390B2, “Amonafide salts” (priority 2002, dated 2006).

Key:
[1] = Minimum amount of water/ethanol (1.5/4 v/v) required to dissolve the crude salt at boil (recrystallization); format: physicochemical
Source text: For comparative purposes, between and among organic salts prepared in this manner and for the purposes of subsequent Example 3, Table 3, crude reaction products were recrystalized from water/ethanol (1.5/4 v/v per gram of salt) using the minimum amount of solvent to effect dissolution at boil.
In the case of succinic acid, the organic acid was dispensed as a half-equivalent in order to generate mitonafide hemisuccinate. […] Crude product that was isolated from the hydrogenation reaction mixture was analyzed for purity by high pressure liquid chromatography (HPLC) according to the conditions described in Table 1 above. The crude product was recrystallized from water/ethanol (1.5/4 v/v) using the minimum amount of solvent required to dissolve the crude product at boil, which is shown in the last column of Table 3 for each salt. The recrystallized product was then analyzed for purity by HPLC.
The purities of the crude salts were assessed by HPLC according to the conditions described in Table 1 above. The crude salts were then recrystallized from the minimum amount of water/ethanol (1.5/4 v/v) using the minimum amount of solvent required to dissolve the crude product at boil, which is shown in the last column of Table 3 for each salt. The resulting purified salts were again assessed for purity.
The hydrochloride and methanesulfonic acid salts of amonafide were prepared according to U.S. Pat. No. 5,420,137. Exemplary procedures are as follows: 3 g of crude amonafide free base, obtained as described in the previous two paragraphs, above, were dissolved under reflux in 60 ml of virtually anhydrous ethanol. Subsequently 1 ml of 35% (1 equivalent, estimated) strength hydrochloric acid was added dropwise while shaking vigorously. After cooling, the resulting crystals were filtered off and washed with 10 ml of anhydrous ethanol. The methanesulfonic acid salt was obtained using the same procedure, but replacing hydrochloric acid with 0.8 ml of methanesulfonic acid. The purity was assessed by HPLC using the conditions described in Table 1. The isolated products were then recrystallized from water/ethanol (1.5/4 v/v) using the minimum amounts of solvent required to dissolve the crude product at boil, which are shown for each salt in Table 3. The resulting purified salts were again assessed for purity.
The hydrochloride salt of amonafide was obtained by the method of Zee-Chang et al., U.S. Pat. No. 4,614,820. Exemplary conditions are as follows: a mixture of the hydrochloride salt of N-(dimethylaminoethyl)-3-nitro-1,8-naphthalimide and 10% palladium-on-charcoal in water was hydrogenated at room temperature under 40 lbs/in^2 of hydrogen for one hour. […] To the mixture was added 3 ml of concentrated hydrochloric acid. It was then filtered and the filtrate was evaporated to dryness under reduced pressure. The residue was triturated with 30 ml of absolute ethanol and filtered. The resulting solid was then washed with ether and dried. The purity was assessed by HPLC using the conditions described in Table 1. The crude product was then recrystallized from water/ethanol (1.5/4 v/v) using the minimum amount of solvent (40 mL/g) required to dissolve the crude product at boil. The resulting purified salts were again assessed for purity.

[2] = test system: H460 (Non-Small Cell Lung Cancer); test: Cytotoxic activity in vitro, percent net growth (SRB/MTT); format: cell-based; details: H460, 48 hours
Procedure: (§1) These cell lines are used by the National Cancer Institute: Developmental Therapeutics Branch in their preliminary screening process for antineoplastic agents. Subsequently, Amonafide Malate was tested against a larger panel of breast, lung and colon cell lines
(§2) Cells were grown in RPMI 1640 medium containing 5% fetal bovine serum and 2 mM L-glutamine. Dependent upon cell doubling time, between 5,000 and 40,000 cells were inoculated into 96 well microtiter plates in a volume of 100 uL per well. The plates were incubated at 37° C., 5% CO2, 95% air, and 100% relative humidity for 24 hours prior to the addition of the experimental drug. After the, 24 hour incubation, two (2) plates of each cell line were fixed in situ with trichloroacetic acid (TCA) to establish the cell population at time of drug addition (Tz).
(§3) Prior to use, the experimental drugs were solubilized in dimethyl sulfoxide at 400-fold the desired final maximum test concentration and frozen. At time of drug addition, an aliquot of frozen concentrate was thawed and diluted to twice the desired final maximum test concentration with complete medium containing 50 ug/ml gentamicin. An additional four (4) 10-fold or ½ log serial dilutions was made for a total of five (5) drug concentrations plus a control. An aliquot of 100 ul of each drug dilution was added to the appropriate well that already contains 100 ul of medium containing the cells. The plates were then incubated for 48 hours at 37° C., 5% CO2; 95% air and 100% relative humidity.
(§4) The number of viable cells was estimated by either a SRB or MTT calorimetric assays.
(§5) For SRB assay, cells were fixed in situ by the gentle addition of 50 ul cold (w/v) TCA (final concentration, 10% TCA) and incubated for 60 minutes at 4° C. The supernatant was discarded, plates washed five (5) times with tap water and air dried. Then Sulforhodamine B (SRB) solution (100 μl) at a 0.4% (w.v.) in 1% acetic acid was added to each well, and the plates incubated for 10 minutes at room temperature. Unbound dye was removed by washing five (5) times with 1% acetic acid and the plates were air dried. The bound stain was solubilized with 10 mM trizma base and the absorbance was read on an automated plate reader at a wavelength of 515 nm.
(§6) The MTT assay measures the ability of viable cells to reduce a tetrazolium salt (MTT) to an insoluble form, a formazan salt. For MTT analysis 20 μl of MTT solution (5 mg/ml in PBS) was added to each well containing cells. The plate was incubated at 37° C. for 5 hours. Media was removed with needle and syringe. 200 μl of DMSO was added to each well and pipetted up and down to dissolve crystals. Plate was placed into a 37° C. incubator for 5 minutes to dissolve air bubbles. Absorbance was read on an automated plate reader at a wavelength of 550 nm.
(§7) Percent net growth inhibition, as shown in FIGS. 2-7, was calculated using the seven absorbance measurements: absorbance by cells at time zero (Tz), absorbance by cells grown in the absence of drug (C), and absorbance of cells grown at the five drug concentrations (Ti). The following expression was used: % Net Growth=[(Ti−Tz)/(C−Tz)]×100 if Ti was greater than or equal to Tz. % Net Growth=[(Ti−Tz)/Tz]×100 if Ti was less than Tz.
(§8) Using the plot of Percent Net Growth as a function of drug concentration, lethality concentration “50%” (LC50), total growth inhibition (TGI) and growth inhibition “50%” (GI50) were determined as follows.

MCF7 (Breast) = test: as above; format: cell-based; details: MCF7, 48 hours
Procedure: as §1, §2, §3, §4, §5, §6, §7, §8

SF268 (Glioma) = test: as above; format: cell-based; details: SF268, 48 hours
Procedure: as §1, §2, §3, §4, §5, §6, §7, §8

[3] = Daily body weight and general health monitoring during the hollow fiber study; format: in vivo; details: mice, monitored daily for 6 days, i.p. dosing
Procedure: Individual mouse body weights were recorded daily and animals were monitored daily for general health for 6 days.

[4] = Percent Net Growth -50%, read-out: LC50 (the source's name)

## CN(C)CCN1C(=O)c2cccc3cc(N)cc(c23)C1=O.O=C(O)C[C@H](O)C(=O)O [Amonafide Malate]
[1]; minimum water/ethanol (1.5/4 v/v) to dissolve crude product at boil, salt made by the method in column 2
  Solvent: 7.5 mL/g
[1]; water/ethanol 1.5/4 v/v
  recrystallization volume for purification, malate compared with HCl: 5 times smaller
[2]; Percent Net Growth 0%
  TGI: 96 µM
[2]; Percent Net Growth 50%
  GI50: 4.11 µM
[2]; [4]
  CC50: 170 µM
MCF7 (Breast); Percent Net Growth 0%
  TGI: 110 µM
MCF7 (Breast); Percent Net Growth 50%
  GI50: 5.16 µM
MCF7 (Breast); [4]
  CC50: 662 µM
SF268 (Glioma); Percent Net Growth 0%
  TGI: 154 µM
SF268 (Glioma); Percent Net Growth 50%
  GI50: 7.7 µM
[3]
  premature sacrifice for body weight loss of greater than 20% or other signs of toxicity: not necessary to sacrifice any animals
